Biological target: T1, EcYjgB (YjgB) (Escherichia coli, UniProt P27250)
T1 construct: gene ahr; full-length, C-terminal 6xHis tag (pET30a), recombinant in E. coli BL21(DE3), purified by Ni-NTA and size exclusion; Zn-containing dimer
T1 sequence (P27250 1-339): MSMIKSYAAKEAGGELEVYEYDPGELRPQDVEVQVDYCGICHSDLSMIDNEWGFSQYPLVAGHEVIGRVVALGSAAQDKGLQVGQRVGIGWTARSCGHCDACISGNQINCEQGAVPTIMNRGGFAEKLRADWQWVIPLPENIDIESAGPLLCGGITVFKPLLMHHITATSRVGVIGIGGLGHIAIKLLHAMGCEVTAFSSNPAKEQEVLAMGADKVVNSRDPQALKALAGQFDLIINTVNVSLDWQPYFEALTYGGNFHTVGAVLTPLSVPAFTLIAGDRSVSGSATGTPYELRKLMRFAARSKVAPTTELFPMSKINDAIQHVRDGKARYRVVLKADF
Test: X-ray crystal structure of soaked crystal, […] A
Format: binding
Conditions: apo crystals soaked with 5 mM NADP for 30 min at 7 C; Zn-bound; PEG fragment in substrate pocket; Rossmann-fold cofactor site

## NC(=O)c1ccc[n+]([C@@H]2O[C@H](COP(=O)(O)OP(=O)(O)OC[C@H]3O[C@@H](n4cnc5c(N)ncnc54)[C@H](OP(=O)(O)O)[C@@H]3O)[C@@H](O)[C@H]2O)c1 [NADP]
  X-ray crystal structure of soaked crystal, 2.00 A: The electron density of NADP is clearly shown in the NADP(H) binding site

From paper PMC7287880, “Structural Basis for Broad Substrate Selectivity of Alcohol Dehydrogenase YjgB from Escherichia coli” (Molecules, 2020)
